Experimental data: patent US11542274B1, “Therapeutic compounds and methods of use thereof” (AGENCY FOR SCIENCE, TECHNOLOGY AND RESEARCH (A*STAR), priority 2019, dated 2023)

The compounds below were run on RAMOS cells (Burkitt's lymphoma cell line) (assay: Anti-proliferation assay (CellTiter-Glo)). Conditions: Homo sapiens, 72 h, 3 days.
Assay type: cell-based
Method: In cell growth experiments, cells were seeded in 96-well cell culture plates at a density of 3000 of RAMOS cells/well in 100 μL of culture medium. 100 μL of the diluted solution containing the tested compound was added to the appropriate wells of the cell plate. After addition of the tested compound, the cells were incubated at 37° C. in an atmosphere of 5% CO2 for 3 days. CellTiter-Glo (CTG) reagent from the Promega CellTiter-Glo Luminescent Cell Viability Assay kit (#G7572) was added into an OptiPlate 96 (Perkin Elmer, White, Opaque, #6005299) in the dark, incubated for at least 2 hrs, and luminescence signal was read using Tecan Safire II Multi-Mode Plate Reader. The GI50 was calculated by nonlinear regression analysis using GraphPad Prism5 software.
GI50 is the concentration for 50% of maximal inhibition of cell proliferation.

Structure (SMILES) | GI50 [µM]
Cc1sc2c(c1C)C(c1ccc(Cl)cc1)=N[C@@H](CC(=O)NCCOCCOCCOCCC(=O)NC1CCN(C(=O)c3ccc4c(c3)NC(=O)C4)CC1)c1nnc(C)n1-2 [Compound 110, (S)-3-(2-(2-(2-(2-(4-(4-chlorophenyl)-2,3,9-trimethyl-6H-thieno[3,2-f][1,2,4]triazolo[4,3-a][1,4]diazepin-6-yl)acetamido)ethoxy)ethoxy)ethoxy)-N-(1-(2-oxoindoline-6-carbonyl)piperidin-4-yl)propanamide] | > 1
Cc1sc2c(c1C)C(c1ccc(Cl)cc1)=N[C@@H](CC(=O)NCCOCCNc1ccc(-c3ccc4c(c3)CC(=O)N4)cn1)c1nnc(C)n1-2 [Compound 117, (S)-2-(4-(4-chlorophenyl)-2,3,9-trimethyl-6H-thieno[3,2-f][1,2,4]triazolo[4,3-a][1,4]diazepin-6-yl)-N-(2-(2-((5-(2-oxoindolin-5-yl)pyridin-2-yl)amino)ethoxy)ethyl)acetamide] | 0.001 to 0.1
Cc1sc2c(c1C)C(c1ccc(Cl)cc1)=N[C@@H](CC(=O)N1CCN(c3ccc(-c4ccc5c(c4)CC(=O)N5)cn3)CC1)c1nnc(C)n1-2 [Compound 119, (S)-5-(6-(4-(2-(4-(4-chlorophenyl)-2,3,9-trimethyl-6H-thieno[3,2-f][1,2,4]triazolo[4,3-a][1,4]diazepin-6-yl)acetyl)piperazin-1-yl)pyridin-3-yl)indolin-2-one] | 0.1 to 1
Cc1sc2c(c1C)C(c1ccc(Cl)cc1)=N[C@@H](CC(=O)NCCNc1ccc(-c3ccc4c(c3)CC(=O)N4)cn1)c1nnc(C)n1-2 [Compound 124, (S)-2-(4-(4-chlorophenyl)-2,3,9-trimethyl-6H-thieno[3,2-f][1,2,4]triazolo[4,3-a][1,4]diazepin-6-yl)-N-(2-((5-(2-oxoindolin-5-yl)pyridin-2-yl)amino)ethyl)acetamide] | 0.001 to 0.1
Cc1sc2c(c1C)C(c1ccc(Cl)cc1)=N[C@@H](CC(=O)NC1CCN(c3ccc(-c4ccc5c(c4)CC(=O)N5)cn3)CC1)c1nnc(C)n1-2 [Compound 125, (S)-2-(4-(4-chlorophenyl)-2,3,9-trimethyl-6H-thieno[3,2-f][1,2,4]triazolo[4,3-a][1,4]diazepin-6-yl)-N-(1-(5-(2-oxoindolin-5-yl)pyridin-2-yl)piperidin-4-yl)acetamide] | 0.001 to 0.1
Cc1sc2c(c1C)C(c1ccc(Cl)cc1)=N[C@@H](CC(=O)NCCCCCNc1ccc(-c3ccc4c(c3)CC(=O)N4)cn1)c1nnc(C)n1-2 [Compound 126, (S)-2-(4-(4-chlorophenyl)-2,3,9-trimethyl-6H-thieno[3,2-f][1,2,4]triazolo[4,3-a][1,4]diazepin-6-yl)-N-(5-((5-(2-oxoindolin-5-yl)pyridin-2-yl)amino)pentyl)acetamide] | 0.001 to 0.1
Cc1sc2c(c1C)C(c1ccc(Cl)cc1)=N[C@@H](CC(=O)NCC1CCN(c3ccc(-c4ccc5c(c4)CC(=O)N5)cn3)CC1)c1nnc(C)n1-2 [Compound 127, (S)-2-(4-(4-chlorophenyl)-2,3,9-trimethyl-6H-thieno[3,2-f][1,2,4]triazolo[4,3-a][1,4]diazepin-6-yl)-N-((1-(5-(2-oxoindolin-5-yl)pyridin-2-yl)piperidin-4-yl)methyl)acetamide] | 0.1 to 1
Cc1sc2c(c1C)C(c1ccc(Cl)cc1)=N[C@@H](CC(=O)NC1CN(c3ccc(-c4ccc5c(c4)CC(=O)N5)cn3)C1)c1nnc(C)n1-2 [Compound 128, (S)-2-(4-(4-chlorophenyl)-2,3,9-trimethyl-6H-thieno[3,2-f][1,2,4]triazolo[4,3-a][1,4]diazepin-6-yl)-N-(1-(5-(2-oxoindolin-5-yl)pyridin-2-yl)azetidin-3-yl)acetamide] | 0.1 to 1
Cc1sc2c(c1C)C(c1ccc(Cl)cc1)=N[C@@H](CC(=O)NC1CCN(c3ccc(-c4ccc5c(c4)CC(=O)N5)cn3)C1)c1nnc(C)n1-2 (stereo partly drawn) [Compound 129, 2-((S)-4-(4-chlorophenyl)-2,3,9-trimethyl-6H-thieno[3,2-f][1,2,4]triazolo[4,3-a][1,4]diazepin-6-yl)-N-(1-(5-(2-oxoindolin-5-yl)pyridin-2-yl)pyrrolidin-3-yl)acetamide] | 0.001 to 0.1
Cc1sc2c(c1C)C(c1ccc(Cl)cc1)=N[C@@H](CC(=O)Nc1ccc(OCCOCCOCCOCCOCCNc3ccc(-c4ccc5c(c4)CC(=O)N5)cn3)cc1)c1nnc(C)n1-2 [Compound 131, (S)-2-(4-(4-chlorophenyl)-2,3,9-trimethyl-6H-thieno[3,2-f][1,2,4]triazolo[4,3-a][1,4]diazepin-6-yl)-N-(4-((14-((5-(2-oxoindolin-5-yl)pyridin-2-yl)amino)-3,6,9,12-tetraoxatetradecyl)oxy)phenyl)acetamide] | 0.001 to 0.1

Second part, the compound after the results:

GI50 [µM] | Structure (SMILES)
> 1 | Cc1sc2c(c1C)C(c1ccc(Cl)cc1)=N[C@@H](CC(=O)NCCOCCOCCOCCC(=O)NC1CCCN(C(=O)c3ccc4c(c3)NC(=O)C4)C1)c1nnc(C)n1-2 (stereo partly drawn) [Compound 111, 3-(2-(2-(2-(2-((S)-4-(4-chlorophenyl)-2,3,9-trimethyl-6H-thieno[3,2-f][1,2,4]triazolo[4,3-a][1,4]diazepin-6-yl)acetamido)ethoxy)ethoxy)ethoxy)-N-(1-(2-oxoindoline-6-carbonyl)piperidin-3-yl)propanamide]
0.1 to 1 | Cc1sc2c(c1C)C(c1ccc(Cl)cc1)=N[C@@H](CC(=O)NCCOCCOCCOCCC(=O)NC1CCCN(C(=O)c3ccc4c(c3)CC(=O)N4)C1)c1nnc(C)n1-2 (stereo partly drawn) [Compound 112, 3-(2-(2-(2-(2-((S)-4-(4-chlorophenyl)-2,3,9-trimethyl-6H-thieno[3,2-f][1,2,4]triazolo[4,3-a][1,4]diazepin-6-yl)acetamido)ethoxy)ethoxy)ethoxy)-N-(1-(2-oxoindoline-5-carbonyl)piperidin-3-yl)propanamide]
0.1 to 1 | Cc1sc2c(c1C)C(c1ccc(Cl)cc1)=N[C@@H](CC(=O)NCCOCCOCCOCCNc1cc(-c3ccc4c(c3)NC(=O)C4)ccn1)c1nnc(C)n1-2 [Compound 113, (S)-2-(4-(4-chlorophenyl)-2,3,9-trimethyl-6H-thieno[3,2-f][1,2,4]triazolo[4,3-a][1,4]diazepin-6-yl)-N-(2-(2-(2-(2-((4-(2-oxoindolin-6-yl)pyridin-2-yl)amino)ethoxy)ethoxy)ethoxy)ethyl)acetamide]
0.1 to 1 | Cc1sc2c(c1C)C(c1ccc(Cl)cc1)=N[C@@H](CC(=O)NCCOCCOCCOCCOCCNc1ccc(-c3ccc4c(c3)CC(=O)N4)cn1)c1nnc(C)n1-2 [Compound 114, (S)-2-(4-(4-chlorophenyl)-2,3,9-trimethyl-6H-thieno[3,2-f][1,2,4]triazolo[4,3-a][1,4]diazepin-6-yl)-N-(14-((5-(2-oxoindolin-5-yl)pyridin-2-yl)amino)-3,6,9,12-tetraoxatetradecyl)acetamide]
0.1 to 1 | Cc1sc2c(c1C)C(c1ccc(Cl)cc1)=N[C@@H](CC(=O)NCCOCCOCCOCCOCCOCCNc1ccc(-c3ccc4c(c3)CC(=O)N4)cn1)c1nnc(C)n1-2 [Compound 115, (S)-2-(4-(4-chlorophenyl)-2,3,9-trimethyl-6H-thieno[3,2-f][1,2,4]triazolo[4,3-a][1,4]diazepin-6-yl)-N-(17-((5-(2-oxoindolin-5-yl)pyridin-2-yl)amino)-3,6,9,12,15-pentaoxaheptadecyl)acetamide]
0.001 to 0.1 | Cc1sc2c(c1C)C(c1ccc(Cl)cc1)=N[C@@H](CC(=O)NCCOCCOCCNc1ccc(-c3ccc4c(c3)CC(=O)N4)cn1)c1nnc(C)n1-2 [Compound 116, (S)-2-(4-(4-chlorophenyl)-2,3,9-trimethyl-6H-thieno[3,2-f][1,2,4]triazolo[4,3-a][1,4]diazepin-6-yl)-N-(2-(2-(2-((5-(2-oxoindolin-5-yl)pyridin-2-yl)amino)ethoxy)ethoxy)ethyl)acetamide]
0.1 to 1 | Cc1sc2c(c1C)C(c1ccc(Cl)cc1)=N[C@@H](CC(=O)Nc1ccc(OCCOCCOCCNc3ccc(-c4ccc5c(c4)CC(=O)N5)cn3)cc1)c1nnc(C)n1-2 [Compound 118, (S)-2-(4-(4-chlorophenyl)-2,3,9-trimethyl-6H-thieno[3,2-f][1,2,4]triazolo[4,3-a][1,4]diazepin-6-yl)-N-(4-(2-(2-(2-((5-(2-oxoindolin-5-yl)pyridin-2-yl)amino)ethoxy)ethoxy)ethoxy)phenyl)acetamide]
0.001 to 0.1 | Cc1sc2c(c1C)C(c1ccc(Cl)cc1)=N[C@@H](CC(=O)NCCOCCOCCC(=O)N1CCN(c3ccc(-c4ccc5c(c4)CC(=O)N5)cn3)CC1)c1nnc(C)n1-2 [Compound 120]
0.1 to 1 | Cc1sc2c(c1C)C(c1ccc(Cl)cc1)=N[C@@H](CC(=O)NCCOCCOCCOCCNc1ccc(-c3ccc4c(c3)CC(=O)N4C)cn1)c1nnc(C)n1-2 [Compound 121, (S)-2-(4-(4-chlorophenyl)-2,3,9-trimethyl-6H-thieno[3,2-f][1,2,4]triazolo[4,3-a][1,4]diazepin-6-yl)-N-(2-(2-(2-(2-((5-(1-methyl-2-oxoindolin-5-yl)pyridin-2-yl)amino)ethoxy)ethoxy)ethoxy)ethyl)acetamide]
0.001 to 0.1 | Cc1sc2c(c1C)C(c1ccc(Cl)cc1)=N[C@@H](CC(=O)N1CCC(N3CCN(c4ccc(-c5ccc6c(c5)CC(=O)N6)cn4)CC3)CC1)c1nnc(C)n1-2 [Compound 123, (S)-5-(6-(4-(1-(2-(4-(4-chlorophenyl)-2,3,9-trimethyl-6H-thieno[3,2-f][1,2,4]triazolo[4,3-a][1,4]diazepin-6-yl)acetyl)piperidin-4-yl)piperazin-1-yl)pyridin-3-yl)indolin-2-one]
0.001 to 0.1 | Cc1sc2c(c1C)C(c1ccc(Cl)cc1)=N[C@@H](CC(=O)NCCOCCC(=O)N1CCN(c3ccc(-c4ccc5c(c4)CC(=O)N5)cn3)CC1)c1nnc(C)n1-2 [Compound 130, (S)-2-(4-(4-chlorophenyl)-2,3,9-trimethyl-6H-thieno[3,2-f][1,2,4]triazolo[4,3-a][1,4]diazepin-6-yl)-N-(2-(3-oxo-3-(4-(5-(2-oxoindolin-5-yl)pyridin-2-yl)piperazin-1-yl)propoxy)ethyl)acetamide]
